According to patent publication US20100152434A1, “Protein Kinase-binding Nucleosides and Associated Methods” (priority 2007, published 2010):
Where two headings read alike, the source gives them in different places.

Columns and labels:
[1] = tested on: SNB-19
[2] = tested on: EKVX; assay: cells; conditions: Homo sapiens, 48 h
[3] = tested on: A498
[4] = tested on: U251; assay: cells; conditions: Homo sapiens, U-251, 48 h
[5] = tested on: LOX IMVI
[6] = tested on: MDA-MB-435; conditions: MDA-MB-435
[7] = tested on: CCRF-CEM; assay: cells; conditions: Homo sapiens, 48 h
[8] = tested on: UO-31
[9] = tested on: KM12
[10] = tested on: UACC-62
[11] = tested on: TK-10; assay: cells; conditions: Homo sapiens, TK-10, 48 h
[12] = tested on: OVCAR-8
[13] = tested on: COLO 205; assay: cells; conditions: Homo sapiens, COLO 205, 48 h
[14] = tested on: NCI-H23
[15] = tested on: A498; assay: cells; conditions: Homo sapiens, A498, 48 h
[16] = tested on: A549/ATCC; assay: cells; conditions: Homo sapiens, A549, 48 h
[17] = tested on: SF-539
[18] = tested on: HOP-62; conditions: HOP-62
[19] = tested on: NCI-H460
[20] = tested on: BT-549; assay: cells; conditions: Homo sapiens, BT-549, 48 h
[21] = tested on: SK-MEL-2; assay: cells; conditions: Homo sapiens, SK-MEL-2, 48 h
[22] = tested on: HCC-2998; conditions: HCC-2998
[23] = tested on: T-47D; assay: cells; conditions: Homo sapiens, T47D, 48 h
[24] = tested on: IGROV1; assay: cells; conditions: Homo sapiens, IGROV-1, 48 h
[25] = tested on: LOX IMVI; assay: cells; conditions: Homo sapiens, 48 h
[26] = tested on: OVCAR-3; assay: cells; conditions: Homo sapiens, OVCAR-3, 48 h
[27] = Log10 Concentration −4.0, Molar
[28] = Log10 Concentration −5.0, Molar
[29] = Log10 Concentration −6.0, Molar
[30] = Log10 Concentration −7.0, Molar
[31] = Log10 Concentration −8.0, Molar

CCOC(=O)C[C@@H]1C(O[Si](C)(C)C(C)(C)C)[C@H](n2cnc3c(NC(=O)Nc4ccccc4)ncnc32)O[C@@H]1CNC(=O)NC (some centres unmarked) [Compound 10]
TGI ([1]; 48 h): >1.00E−4 Molar | Percent Growth [1, 27]: 12% | Percent Growth [1, 28]: 82% | Percent Growth [1, 29]: 87% | Percent Growth [1, 30]: 95% | Percent Growth [1, 31]: 92% | GI50 [2]: 17.7 µM | CC50 ([2]; read-out: LC50): > 100 µM | TGI ([3]; 48 h): 1.71E−5 Molar | Percent Growth [3, 27]: −41% | Percent Growth [3, 28]: 13% | Percent Growth [3, 29]: 91% | Percent Growth [3, 30]: 92% | Percent Growth [3, 31]: 95% | GI50 [4]: 4.69 µM | CC50 ([4]; read-out: LC50): 76 µM | TGI ([5]; 48 h): >1.00E−4 Molar | Percent Growth [5, 27]: 4% | Percent Growth [5, 28]: 35% | Percent Growth [5, 29]: 93% | Percent Growth [5, 30]: 97% | Percent Growth [5, 31]: 97% | TGI ([6]; 48 h): >1.00E−4 Molar | Percent Growth [6, 27]: 8% | Percent Growth [6, 28]: 40% | Percent Growth [6, 29]: 89% | Percent Growth [6, 30]: 92% | Percent Growth [6, 31]: 95% | GI50 [7]: 6.69 µM | CC50 ([7]; read-out: LC50): > 100 µM | TGI ([8]; 48 h): 2.95E−5 Molar | Percent Growth [8, 27]: −69% | Percent Growth [8, 28]: 61% | Percent Growth [8, 29]: 82% | Percent Growth [8, 30]: 87% | Percent Growth [8, 31]: 87% | TGI ([9]; 48 h): 2.09E−5 Molar | Percent Growth [9, 27]: −28% | Percent Growth [9, 28]: 13% | Percent Growth [9, 29]: 105% | Percent Growth [9, 30]: 112% | Percent Growth [9, 31]: 107% | TGI ([10]; 48 h): >1.00E−4 Molar | Percent Growth [10, 27]: 60% | Percent Growth [10, 28]: 82% | Percent Growth [10, 29]: 97% | Percent Growth [10, 30]: 102% | Percent Growth [10, 31]: 100% | GI50 [11]: 12.4 µM | CC50 ([11]; read-out: LC50): > 100 µM | TGI ([12]; 48 h): 7.72E−5 Molar | Percent Growth [12, 27]: −4% | Percent Growth [12, 28]: 29% | Percent Growth [12, 29]: 98% | Percent Growth [12, 30]: 100% | Percent Growth [12, 31]: 99% | GI50 [13]: 3.84 µM | CC50 ([13]; read-out: LC50): > 100 µM | TGI ([14]; 48 h): >1.00E−4 Molar | Percent Growth [14, 27]: 36% | Percent Growth [14, 28]: 65% | Percent Growth [14, 29]: 100% | Percent Growth [14, 30]: 100% | Percent Growth [14, 31]: 101% | GI50 [15]: 3.34 µM | CC50 ([15]; read-out: LC50): > 100 µM | GI50 [16]: 4.18 µM | CC50 ([16]; read-out: LC50): 79.1 µM | TGI ([17]; 48 h): >1.00E−4 Molar | Percent Growth [17, 27]: 17% | Percent Growth [17, 28]: 29% | Percent Growth [17, 29]: 103% | Percent Growth [17, 30]: 91% | Percent Growth [17, 31]: 97% | TGI ([18]; 48 h): 2.64E−5 Molar | Percent Growth [18, 27]: −65% | Percent Growth [18, 28]: 48% | Percent Growth [18, 29]: 97% | Percent Growth [18, 30]: 92% | Percent Growth [18, 31]: 99% | TGI ([19]; 48 h): 2.50E−5 Molar | Percent Growth [19, 27]: −49% | Percent Growth [19, 28]: 32% | Percent Growth [19, 29]: 101% | Percent Growth [19, 30]: 102% | Percent Growth [19, 31]: 102% | GI50 [20]: > 100 µM | CC50 ([20]; read-out: LC50): > 100 µM | GI50 [21]: 5.42 µM | CC50 ([21]; read-out: LC50): > 100 µM | TGI ([22]; 48 h): >1.00E−4 Molar | Percent Growth [22, 27]: 62% | Percent Growth [22, 28]: 69% | Percent Growth [22, 29]: 93% | Percent Growth [22, 30]: 96% | Percent Growth [22, 31]: 101% | GI50 [23]: 2.55 µM | CC50 ([23]; read-out: LC50): > 100 µM | GI50 [24]: 3.85 µM | CC50 ([24]; read-out: LC50): 79.2 µM | GI50 [25]: 5.46 µM | CC50 ([25]; read-out: LC50): > 100 µM | GI50 [26]: 4.59 µM | CC50 ([26]; read-out: LC50): 91.3 µM
